Measurements taken from patent US20160256449A1, “H3 RECEPTOR ANTAGONIST FOR USE IN THE TREATMENT OF ALZHEIMER'S DISEASE” (SANOFI, priority 2013, published 2016).

Tested on: patients with mild to moderate Alzheimer's disease
Assay: clinical study, actigraphy (Actiwatch)
Assay type: in vivo, human
Conditions: for Interdaily variability, Ch from bl FUP / Intradaily stability, Ch from bl FUP / Mean awakening duration, Ch from bl FUP / Number of awakenings, Ch from bl FUP / Relative amplitude, Ch from bl FUP / Sleep efficiency, Ch from bl FUP / Sleep fragmentation, Ch from bl FUP / Total sleep time, Ch from bl FUP / Wake after sleep onset, Ch from bl FUP: follow-up
Excerpt: Actigraphy as used herein refers to an assessment of activity measured by an Actiwatch®, which was worn day and night by the patient during 4 periods of 15 days: before randomization, immediately after randomization, around week 12 and after treatment discontinuation around week 34 during the clinical study described in Example 2. The watch measures movements translating into assessment of sleep quality (number and duration of awakenings, wake after sleep onset or WASO, fragmentation index, sleep efficiency, total sleep period, total sleep time) and circadian rhythms ([…], relative amplitude).
A randomized, double-blind, parallel-group, placebo-controlled clinical trial was performed to study the effect on cognitive performance, safety, and tolerability of 2-(cyclohexylmethyl)-N-{2-[(2S)-1-methylpyrrolidin-2-yl]ethyl}-1,2,3,4-tetrahydroisoquinoline-7-sulfonamide difumarate monohydrate as adjunct treatment to donepezil.
More specifically, patients with mild to moderate Alzheimer's disease on stable donepezil therapy were randomized to receive doses of 0.5 mg, 2 mg, or 5 mg/day of 2-(cyclohexylmethyl)-N-{2-[(2S)-1-methylpyrrolidin-2-yl]ethyl}-1,2,3,4-tetrahydroisoquinoline-7-sulfonamide difumarate monohydrate or placebo for 24 weeks, with a 10 week follow-up period.
Patients were randomized to receive 0.5 mg, 2 mg, or 5 mg of 2-(cyclohexylmethyl)-N-{2-[(2S)-1-methylpyrrolidin-2-yl]ethyl}-1,2,3,4-tetrahydroisoquinoline-7-sulfonamide difumarate monohydrate (measured in base form), or matching placebo once a day, with donepezil (5 mg or 10 mg in the form the patient took prior to enrollment), for 24 weeks, with or without food.

CN1CCC[C@H]1CCNS(=O)(=O)c1ccc2c(c1)CN(CC1CCCCC1)CC2 [API, 2-(cyclohexylmethyl)-N-{2-[(2S)-1-methylpyrrolidin-2-yl]ethyl}-1,2,3,4-tetrahydroisoquinoline-7-sulfonamide difumarate monohydrate]
Interdaily variability, Ch from bl W2 (0.5 mg/day with donepezil): 0.01
Interdaily variability, Ch from bl W12 (0.5 mg/day with donepezil): 0.04
Intradaily stability, Ch from bl W2 (0.5 mg/day with donepezil): −0.03
Intradaily stability, Ch from bl W12 (0.5 mg/day with donepezil): −0.06
Mean awakening duration, Ch from bl W2 (0.5 mg/day with donepezil): 0.08 min
Mean awakening duration, Ch from bl W12 (0.5 mg/day with donepezil): 0.22 min
Mean awakening duration, significance (unlabelled line under Ch from bl W12) (0.5 mg/day with donepezil): 0.0109
Number of awakenings, Ch from bl W2 (0.5 mg/day with donepezil): −0.37
Number of awakenings, Ch from bl W12 (0.5 mg/day with donepezil): −0.55
Relative amplitude, Ch from bl W2 (0.5 mg/day with donepezil): 0.00
Relative amplitude, Ch from bl W12 (0.5 mg/day with donepezil): 0.02
Sleep efficiency, Ch from bl W2 (0.5 mg/day with donepezil): −0.05%
Sleep efficiency, Ch from bl W12 (0.5 mg/day with donepezil): −0.53%
Sleep efficiency, significance (unlabelled line under Ch from bl W12) (0.5 mg/day with donepezil): 0.0121
Sleep fragmentation, Ch from bl W2 (0.5 mg/day with donepezil): 0.91
Sleep fragmentation, Ch from bl W12 (0.5 mg/day with donepezil): 0.29
Total sleep time, Ch from bl W2 (0.5 mg/day with donepezil): −0.03 h.min
Total sleep time, Ch from bl W12 (0.5 mg/day with donepezil): 0.05 h.min
Wake after sleep onset, Ch from bl W2 (0.5 mg/day with donepezil): 0.02 h.min
Wake after sleep onset, Ch from bl W12 (0.5 mg/day with donepezil): 0.03 h.min
Interdaily variability, Ch from bl FUP (0.5 mg/day with donepezil): −0.02
Intradaily stability, Ch from bl FUP (0.5 mg/day with donepezil): 0.06
Mean awakening duration, Ch from bl FUP (0.5 mg/day with donepezil): 0.01 min
Number of awakenings, Ch from bl FUP (0.5 mg/day with donepezil): 1.34
Relative amplitude, Ch from bl FUP (0.5 mg/day with donepezil): −0.01
Sleep efficiency, Ch from bl FUP (0.5 mg/day with donepezil): −0.69%
Sleep fragmentation, Ch from bl FUP (0.5 mg/day with donepezil): 0.98
Total sleep time, Ch from bl FUP (0.5 mg/day with donepezil): 0.24 h.min
Wake after sleep onset, Ch from bl FUP (0.5 mg/day with donepezil): 0.04 h.min
sleep quality assessed by wake after sleep onset (WASO) over placebo (2 mg and 5 mg groups, from week 12): dose-dependent worsening of sleep quality
Interdaily variability, Ch from bl W2 (2 mg/day with donepezil): −0.01
Interdaily variability, Ch from bl W12 (2 mg/day with donepezil): −0.03
Intradaily stability, Ch from bl W2 (2 mg/day with donepezil): 0.02
Intradaily stability, Ch from bl W12 (2 mg/day with donepezil): 0.01
Mean awakening duration, Ch from bl W2 (2 mg/day with donepezil): 0.14 min
Mean awakening duration, Ch from bl W12 (2 mg/day with donepezil): 0.40 min
Mean awakening duration, significance (unlabelled line under Ch from bl W12) (2 mg/day with donepezil): <.0001
Number of awakenings, Ch from bl W2 (2 mg/day with donepezil): 0.51
Number of awakenings, Ch from bl W12 (2 mg/day with donepezil): 1.26
Relative amplitude, Ch from bl W2 (2 mg/day with donepezil): −0.03
Relative amplitude, Ch from bl W12 (2 mg/day with donepezil): −0.06
Relative amplitude, significance (unlabelled line under Ch from bl W12) (2 mg/day with donepezil): <.0001
Sleep efficiency, Ch from bl W2 (2 mg/day with donepezil): −1.65%
Sleep efficiency, Ch from bl W12 (2 mg/day with donepezil): −2.58%
Sleep efficiency, significance (unlabelled line under Ch from bl W12) (2 mg/day with donepezil): <.0001
Sleep fragmentation, Ch from bl W2 (2 mg/day with donepezil): 2.82
Sleep fragmentation, Ch from bl W12 (2 mg/day with donepezil): 6.31
Sleep fragmentation, significance (unlabelled line under Ch from bl W12) (2 mg/day with donepezil): <.0001
Total sleep time, Ch from bl W2 (2 mg/day with donepezil): −0.1 h.min
Total sleep time, Ch from bl W12 (2 mg/day with donepezil): −0.2 h.min
Wake after sleep onset, Ch from bl W2 (2 mg/day with donepezil): 0.07 h.min
Wake after sleep onset, Ch from bl W12 (2 mg/day with donepezil): 0.18 h.min
Wake after sleep onset, significance (unlabelled line under Ch from bl W12) (2 mg/day with donepezil): <.0001
Interdaily variability, Ch from bl FUP (2 mg/day with donepezil): −0.01
Intradaily stability, Ch from bl FUP (2 mg/day with donepezil): 0.04
Mean awakening duration, Ch from bl FUP (2 mg/day with donepezil): 0.34 min
Number of awakenings, Ch from bl FUP (2 mg/day with donepezil): 1.27
Relative amplitude, Ch from bl FUP (2 mg/day with donepezil): −0.07
Sleep efficiency, Ch from bl FUP (2 mg/day with donepezil): −3.97%
Sleep fragmentation, Ch from bl FUP (2 mg/day with donepezil): 3.93
Total sleep time, Ch from bl FUP (2 mg/day with donepezil): −0.25 h.min
Wake after sleep onset, Ch from bl FUP (2 mg/day with donepezil): 0.13 h.min
Total sleep time, significance (unlabelled line under Ch from bl W12) (2 mg/day with donepezil, NS = non-significant): 0.06)
total sleep time (5 mg): No modification
total sleep time and WASO after treatment discontinuation (FUP) (5 mg group): improved
Interdaily variability, Ch from bl W2 (5 mg/day with donepezil): 0.00
Interdaily variability, Ch from bl W12 (5 mg/day with donepezil): −0.04
Intradaily stability, Ch from bl W2 (5 mg/day with donepezil): −0.05
Intradaily stability, Ch from bl W12 (5 mg/day with donepezil): 0.02
Mean awakening duration, Ch from bl W2 (5 mg/day with donepezil): 0.30 min
Mean awakening duration, Ch from bl W12 (5 mg/day with donepezil): 0.38 min
Mean awakening duration, significance (unlabelled line under Ch from bl W12) (5 mg/day with donepezil): <.0001
Number of awakenings, Ch from bl W2 (5 mg/day with donepezil): −0.52
Number of awakenings, Ch from bl W12 (5 mg/day with donepezil): 0.84
Relative amplitude, Ch from bl W2 (5 mg/day with donepezil): −0.02
Relative amplitude, Ch from bl W12 (5 mg/day with donepezil): −0.08
Relative amplitude, significance (unlabelled line under Ch from bl W12) (5 mg/day with donepezil): 0.0015
Sleep efficiency, Ch from bl W2 (5 mg/day with donepezil): −1.82%
Sleep efficiency, Ch from bl W12 (5 mg/day with donepezil): −2.26%
Sleep efficiency, significance (unlabelled line under Ch from bl W12) (5 mg/day with donepezil): <.0001
Sleep fragmentation, Ch from bl W2 (5 mg/day with donepezil): 3.57
Sleep fragmentation, Ch from bl W12 (5 mg/day with donepezil): 5.83
Sleep fragmentation, significance (unlabelled line under Ch from bl W12) (5 mg/day with donepezil): 0.0005
Total sleep time, Ch from bl W2 (5 mg/day with donepezil): −0.11 h.min
Total sleep time, Ch from bl W12 (5 mg/day with donepezil): −0.05 h.min
Wake after sleep onset, Ch from bl W2 (5 mg/day with donepezil): 0.08 h.min
Wake after sleep onset, Ch from bl W12 (5 mg/day with donepezil): 0.17 h.min
Wake after sleep onset, significance (unlabelled line under Ch from bl W12) (5 mg/day with donepezil): <.0001
Interdaily variability, Ch from bl FUP (5 mg/day with donepezil): 0.00
Intradaily stability, Ch from bl FUP (5 mg/day with donepezil): −0.03
Mean awakening duration, Ch from bl FUP (5 mg/day with donepezil): 0.12 min
Number of awakenings, Ch from bl FUP (5 mg/day with donepezil): 1.20
Relative amplitude, Ch from bl FUP (5 mg/day with donepezil): −0.02
Sleep efficiency, Ch from bl FUP (5 mg/day with donepezil): −0.89%
Sleep fragmentation, Ch from bl FUP (5 mg/day with donepezil): 3.08
Total sleep time, Ch from bl FUP (5 mg/day with donepezil): 0.1 h.min
Wake after sleep onset, Ch from bl FUP (5 mg/day with donepezil): 0.09 h.min
